The results in this text go back to patent publication US20150038438A1, “ANTIBACTERIAL COMPOUNDS AND METHODS FOR USE” (PTC THERAPEUTICS, INC., priority 2011, published 2015).

Experiment in all cases: Antibacterial activity, microbroth dilution method (MIC)
In general terms: Dilution methods test growth across graded concentrations, often in twofold steps.

In assay [1] the test system is Gram-positive Staphylococcus aureus (S. aureus) 29213. The format is cell-based. The note with it: Staphylococcus aureus, Gram-positive S. aureus 29213. The text has this:
(§1) The antibacterial activity from a microbroth dilution method may be presented as the minimum inhibitory concentration (MIC in μg/mL). The MIC value is the lowest concentration of drug which prevents macroscopically visible growth under test conditions.
(§2) Antibacterial activity of test compounds against the super sensitive Gram-negative Escherichia coli (E. coli) BAS849 bacterium, the control Gram-negative E. coli 25922 strain and the Gram-positive Staphylococcus aureus (S. aureus) 29213 bacterium are shown in Table 1.

For assay [2], the system named is super sensitive Gram-negative Escherichia coli (E. coli) BAS849. The format is cell-based. As to conditions: Escherichia coli; super sensitive Gram-negative E. coli BAS849; microbroth dilution; read-out: MIC, E. coli BAS849.
From the text: as §1, §2

The subject of assay [3] is control Gram-negative E. coli 25922 strain. The format is cell-based, Escherichia coli. As to conditions: Escherichia coli.
From the text: as §1, §2

Structures are written as SMILES. In brackets after ≈: the same amount, converted by molar mass. Structures can show the parent of a compound that is named as a salt. A value given as a limit tells only on which side of the number the result lay.

As usually defined, the MIC is the smallest concentration in the dilution series that meets the test's criterion for growth inhibition. Consider `Cl.Cn1c(CNC2(C)CC2)cc2cc3c(cc21)OCCc1c-3[nH]c(=O)c(C(=O)O)c1O` [Cpd 167, 4-hydroxy-9-methyl-10-(((1-methylcyclopropyl)amino)methyl)-2-oxo-2,5,6,9-tetrahydro-1H-pyrido[2′,3′:4,5]oxepino[3,2-f]indole-3-carboxylic acid hydrochloride], for which the MIC is 1 to 3.5 µg/mL in assay [1], below 1 µg/mL in assay [2] and below 1 µg/mL in assay [3].
Take `CC1COc2cc(N3CCC(N(C)C)C3)ccc2-c2[nH]c(=O)c(C(=O)O)c(O)c21.Cl` (stereo not drawn) [Cpd 84, 9-(3-(dimethylamino)pyrrolidin-1-yl)-4-hydroxy-5-methyl-2-oxo-1,2,5,6-tetrahydrobenzo[2,3]oxepino[4,5-b]pyridine-3-carboxylic acid hydrochloride]: the MIC lay in the range of 12.5 to 150 µg/mL in assay [1], 1 to 3.5 µg/mL in assay [2] and 12.5 to 150 µg/mL in assay [3].
In the case of `CCCCCCCCNCc1cc2cc3c(cc2n1C)CCCc1c-3[nH]c(=O)c(C(=O)O)c1O.Cl` [Cpd 140, 4-hydroxy-9-methyl-10-((octylamino)methyl)-2-oxo-1,2,5,6,7,9-hexahydropyrido[3′,2′:6,7]cyclohepta[1,2-f]indole-3-carboxylic acid hydrochloride], the MIC in assay [1] is 1 to 3.5 µg/mL; in assay [2], below 1 µg/mL; in assay [3], 12.5 to 150 µg/mL.
The matching figures for `Cl.O=C(O)c1c(O)c2c([nH]c1=O)-c1ccc(N3CCCNCC3)cc1CCC2` [Cpd 111, 9-(1,4-diazepan-1-yl)-4-hydroxy-2-oxo-2,5,6,7-tetrahydro-1H-benzo[6,7]cyclohepta[1,2-b]pyridine-3-carboxylic acid hydrochloride]: 12.5 to 150 µg/mL, 1 to 3.5 µg/mL and 12.5 to 150 µg/mL.
The corresponding values for `Cl.Cn1c(CNCCO)cc2cc3c(cc21)CCCc1c-3[nH]c(=O)c(C(=O)O)c1O` [Cpd 147, 4-hydroxy-10-(((2-hydroxyethyl)amino)methyl)-9-methyl-2-oxo-1,2,5,6,7,9-hexahydropyrido[3′,2′:6,7]cyclohepta[1,2-f]indole-3-carboxylic acid hydrochloride] are 12.5 to 150 µg/mL, below 1 µg/mL and 3.5 to 12.5 µg/mL.
The corresponding values for `O=C(O)c1c(O)c2c([nH]c1=O)-c1ccc(N3CCCC3)cc1CCCC2` [Cpd 126, 4-hydroxy-2-oxo-10-(pyrrolidin-1-yl)-1,2,5,6,7,8-hexahydrobenzo[7,8]cycloocta[1,2-b]pyridine-3-carboxylic acid] are 1 to 3.5 µg/mL (≈ 2.82 to 9.88 µM), below 1 µg/mL and 12.5 to 150 µg/mL (≈ 35.3 to 423 µM).
For `Cl.Cn1c(CNC(C)(C)C)cc2cc3c(cc21)CCCc1cc(C(=O)O)c(=O)[nH]c1-3` [Cpd 56, 10-((tert-butylamino)methyl)-9-methyl-2-oxo-1,2,5,6,7,9-hexahydropyrido[3′,2′:6,7]cyclohepta[1,2-f]indole-3-carboxylic acid hydrochloride], the MIC in assay [1] was 12.5 to 150 µg/mL; in assay [2] it was below 1 µg/mL; in assay [3], 1 to 3.5 µg/mL.
For `CN(C)c1ccc2c(c1)CCc1cc(C(=O)O)c(=O)[nH]c1-2` [Cpd 1, 8-(dimethylamino)-2-oxo-1,2,5,6-tetrahydrobenzo[h]quinoline-3-carboxylic acid], the MIC in assay [1] was 12.5 to 150 µg/mL (≈ 44 to 528 µM); in assay [2], 3.5 to 12.5 µg/mL (≈ 12.3 to 44 µM); in assay [3] it was 12.5 to 150 µg/mL (≈ 44 to 528 µM).
`Cl.Cl.Cn1c(CNCCN2CCCC2)cc2cc3c(cc21)CCCc1c-3[nH]c(=O)c(C(=O)O)c1O` [Cpd 152, 4-hydroxy-9-methyl-2-oxo-10-(((2-(pyrrolidin-1-yl)ethyl)amino)methyl)-1,2,5,6,7,9-hexahydropyrido[3′,2′:6,7]cyclohepta[1,2-f]indole-3-carboxylic acid dihydrochloride]: the minimal inhibitory concentration (MIC) was 12.5 to 150 µg/mL in assay [1], below 1 µg/mL in assay [2] and 3.5 to 12.5 µg/mL in assay [3].
The corresponding values for `Cn1c2c(cc(C(=O)O)c1=O)CCCc1cc3c(ccn3C)cc1-2` [Cpd 133, 1,9-dimethyl-2-oxo-1,2,5,6,7,9-hexahydropyrido[3′,2′:6,7]cyclohepta[1,2-f]indole-3-carboxylic acid] are 12.5 to 150 µg/mL (≈ 38.8 to 465 µM), below 1 µg/mL and 3.5 to 12.5 µg/mL (≈ 10.9 to 38.8 µM).
The corresponding values for `CC(C)NCc1cc2cc3c(cc2n1C)C(C)CCc1c-3[nH]c(=O)c(C(=O)O)c1O.Cl` (stereo not drawn) [Cpd 64, 4-hydroxy-10-((isopropylamino)methyl)-7,9-dimethyl-2-oxo-1,2,5,6,7,9-hexahydropyrido[3′,2′:6,7]cyclohepta[1,2-f]indole-3-carboxylic acid hydrochloride] are 12.5 to 150 µg/mL, 1 to 3.5 µg/mL and 3.5 to 12.5 µg/mL.
The corresponding values for `CNCc1cc2cc3c(cc2n1C)C=CCc1c-3[nH]c(=O)c(C(=O)O)c1O.Cl` [Cpd 68, 4-hydroxy-9-methyl-10-((methylamino)methyl)-2-oxo-1,2,5,9-tetrahydropyrido[3′,2′:6,7]cyclohepta[1,2-f]indole-3-carboxylic acid hydrochloride] are 3.5 to 12.5 µg/mL, below 1 µg/mL and below 1 µg/mL.
As for `N[C@@H]1[C@H]2CN(c3ccc4c(c3)CCCCc3c-4[nH]c(=O)c(C(=O)O)c3O)C[C@@H]12` [Cpd 127, 10-((cis,cis)-6-amino-3-azabicyclo[3.1.0]hexan-3-yl)-4-hydroxy-2-oxo-1,2,5,6,7,8-hexahydrobenzo[7,8]cycloocta[1,2-b]pyridine-3-carboxylic acid hydrochloride], the values for the MIC in assay [1], in assay [2] and in assay [3] were 3.5 to 12.5 µg/mL, below 1 µg/mL and below 1 µg/mL, respectively.
As to `CC1Cc2cc(N3CCC(N(C)C)C3)ccc2-c2[nH]c(=O)c(C(=O)O)c(O)c21.Cl` (stereo not drawn) [Cpd 109, 8-(3-(dimethylamino)pyrrolidin-1-yl)-4-hydroxy-5-methyl-2-oxo-1,2,5,6-tetrahydrobenzo[h]quinoline-3-carboxylic acid hydrochloride], the MIC is 12.5 to 150 µg/mL in assay [1], 3.5 to 12.5 µg/mL in assay [2] and 12.5 to 150 µg/mL in assay [3].
As to `Cl.Cn1c(CN2CCC2)cc2cc3c(cc21)CCc1c-3[nH]c(=O)c(C(=O)O)c1O` [Cpd 21, 9-(azetidin-1-ylmethyl)-4-hydroxy-8-methyl-2-oxo-2,5,6,8-tetrahydro-1H-indolo[6,5-h]quinoline-3-carboxylic acid hydrochloride], the MIC in assay [1] was in the range of 12.5 to 150 µg/mL; in assay [2] it was 1 to 3.5 µg/mL; in assay [3], 3.5 to 12.5 µg/mL.
Take `CNCc1cc2cc3c(cc2n1C)CCCc1cc(C(=O)O)c(=O)[nH]c1-3.Cl` [Cpd 53, 9-methyl-10-((methylamino)methyl)-2-oxo-1,2,5,6,7,9-hexahydropyrido[3′,2′:6,7]cyclohepta[1,2-f]indole-3-carboxylic acid hydrochloride]: the MIC in assay [1] was 12.5 to 150 µg/mL; in assay [2], below 1 µg/mL; in assay [3], 1 to 3.5 µg/mL.
With `O=C(O)c1c(O)c2c([nH]c1=O)-c1ccc(N3CCCC3)cc1SCC2` [Cpd 186, 4-hydroxy-2-oxo-9-(pyrrolidin-1-yl)-1,2,5,6-tetrahydrobenzo[2,3]thiepino[4,5-b]pyridine-3-carboxylic acid], the MIC in assay [1] is 3.5 to 12.5 µg/mL (≈ 9.77 to 34.9 µM); in assay [2], below 1 µg/mL; in assay [3], 12.5 to 150 µg/mL (≈ 34.9 to 419 µM).
`Cl.Cn1c(CN)cc2cc3c(cc21)CCCc1c-3[nH]c(=O)c(C(=O)O)c1O` [Cpd 35, 10-(aminomethyl)-4-hydroxy-9-methyl-2-oxo-1,2,5,6,7,9-hexahydropyrido[3′,2′:6,7]cyclohepta[1,2-f]indole-3-carboxylic acid hydrochloride]: the MIC is 3.5 to 12.5 µg/mL in assay [1], below 1 µg/mL in assay [2] and 1 to 3.5 µg/mL in assay [3].
As to `CC1Oc2cc(N3CCC(N(C)C)C3)ccc2-c2[nH]c(=O)c(C(=O)O)cc21.Cl` (stereo not drawn) [Cpd 75, 8-(3-(dimethylamino)pyrrolidin-1-yl)-5-methyl-2-oxo-2,5-dihydro-1H-chromeno[4,3-b]pyridine-3-carboxylic acid hydrochloride], the MIC in assay [1], in assay [2] and in assay [3] was 12.5 to 150 µg/mL each time.
Turning to `Cl.Cn1c(CNCC2CC2)cc2cc3c(cc21)CCCc1c-3[nH]c(=O)c(C(=O)O)c1O` [Cpd 32, 10-(((cyclopropylmethyl)amino)methyl)-4-hydroxy-9-methyl-2-oxo-1,2,5,6,7,9-hexahydropyrido[3′,2′:6,7]cyclohepta[1,2-f]indole-3-carboxylic acid hydrochloride], the MIC in assay [1] is 1 to 3.5 µg/mL; in assay [2], below 1 µg/mL; in assay [3] it was 1 to 3.5 µg/mL.
Take `CCNCc1cc2cc3c(cc2n1C)OCC(C)c1c-3[nH]c(=O)c(C(=O)O)c1O.Cl` (stereo not drawn) [Cpd 92, 10-((ethylamino)methyl)-4-hydroxy-5,9-dimethyl-2-oxo-2,5,6,9-tetrahydro-1H-pyrido[2′,3′:4,5]oxepino[3,2-f]indole-3-carboxylic acid hydrochloride]: the MIC was in the range of 12.5 to 150 µg/mL in assay [1], 1 to 3.5 µg/mL in assay [2] and 3.5 to 12.5 µg/mL in assay [3].
The matching figures for `CC(C)NCc1cc2cc3c(cc2n1C)NCCc1c-3[nH]c(=O)c(C(=O)O)c1O.Cl` [Cpd 101, 4-hydroxy-10-((isopropylamino)methyl)-9-methyl-2-oxo-1,2,5,6,7,9-hexahydropyrido[2′,3′:4,5]azepino[3,2-f]indole-3-carboxylic acid hydrochloride]: 12.5 to 150 µg/mL, 1 to 3.5 µg/mL and 3.5 to 12.5 µg/mL.
The matching figures for `CN1CCC2CN(Cc3cc4cc5c(cc4n3C)CCCc3c-5[nH]c(=O)c(C(=O)O)c3O)CC21.Cl.Cl` (stereo not drawn) [Cpd 162, 4-hydroxy-9-methyl-10-((1-methylhexahydropyrrolo[3,4-b]pyrrol-5(1H)-yl)methyl)-2-oxo-1,2,5,6,7,9-hexahydropyrido[3′,2′:6,7]cyclohepta[1,2-f]indole-3-carboxylic acid dihydrochloride]: 12.5 to 150 µg/mL, below 1 µg/mL and 3.5 to 12.5 µg/mL.
